Data on 2 molecules can be found in paper PMC4305313, “A Novel Phthalimide Derivative, TC11, Has Preclinical Effects on High-Risk Myeloma Cells and Osteoclasts” (PLoS ONE, 2015).

Each structure is given as a SMILES string. pKd: −log10 of the molar value.

The target in this test is T1, nucleophosmin 1 (NPM1) (Homo sapiens, UniProt P06748).
T1 construct: full length of NPM1, recombinant, expressed in E. coli
Put plainly: SPR (Biacore […], NPM1 immobilized on NTA chip). It is filed as binding.

T1 sequence (P06748 whole entry): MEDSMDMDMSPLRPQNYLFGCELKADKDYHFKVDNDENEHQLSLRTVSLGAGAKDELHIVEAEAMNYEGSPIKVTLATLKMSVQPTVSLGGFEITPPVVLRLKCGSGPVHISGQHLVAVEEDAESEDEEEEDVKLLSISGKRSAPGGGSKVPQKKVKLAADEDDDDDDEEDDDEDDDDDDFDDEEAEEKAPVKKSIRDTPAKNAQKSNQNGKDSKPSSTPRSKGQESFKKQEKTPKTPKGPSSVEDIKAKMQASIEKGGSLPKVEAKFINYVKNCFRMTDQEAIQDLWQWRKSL

For `CC(C)c1cccc(C(C)C)c1N1C(=O)c2ccc(N)cc2C1=O` [TC11, 2-(2,6-diisopropylphenyl)-5-amino-1H-isoindole-1,3-dione], the pKd is 7.21. For `Nc1cccc2c1CN(C1CCC(=O)NC1=O)C2=O` (centres unmarked) [lenalidomide], the pKd is 6.12.
